Where a name gives a salt, the structure may show the parent alone. Read-outs that look alike come from different tables or passages of the source.
Legend:
Format in all cases: cell-based, human
[1] = tested on: p-ERK in NCI-H441 cells (KRAS G12V mutation); test: Cell p-ERK assay (HTRF) in NCI-H441 cells
Summary of the method: (§1)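 IC50 values derive from four-parameter fitting of p-ERK (T202/Y204) HTRF inhibition, normalized to DMSO and blank controls. The lysates came from cells exposed for 3 h to serial 3.16-fold compound dilutions at 0.1% DMSO, after overnight plating at 10000 AsPC-1 or 20000 NCI-H441 cells per well.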

[2] = tested on: p-ERK in AsPC-1 cells (KRAS G12D mutation); test: Cell p-ERK assay (HTRF) in AsPC-1 cells
Summary of the method: as §1

[3] = tested on: AsPC-1 cells (KRAS G12D mutation); test: 3D cell proliferation assay (CellTiter Glo-3D), AsPC-1; details: medium with 2% FBS, read-out: AsPC-1 AP IC50
Summary of the method: (§2)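 Cells were seeded at 800 per well in RPMI-1640 containing 2% FBS and left overnight. Compounds in 3.16-fold dilution series were then added at 0.1% DMSO and incubated 5 days at 37 °C. Viability was read by CellTiter-Glo 3D luminescence and IC50 values fitted by four-parameter regression.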

NCI-H441 cells = test: 3D cell proliferation assay (CellTiter Glo-3D), NCI-H441; details: medium with 2% FBS, read-out: H441 AP IC50
Summary of the method: as §2

[4] = Homo sapiens, ASPC1, 3D cell proliferation (CellTiter Glo-3D)
[5] = Homo sapiens, NCI-H441, 3 h, NCI-H441 cells, 3 h compound incubation, HTRF p-ERK T202/Y204, read-out: H441 p-ERK IC50
[6] = Homo sapiens, ASPC1, 3 h, AsPC-1 cells, 3 h compound incubation, HTRF p-ERK T202/Y204, read-out: AsPC-1 p-ERK IC50
[7] = Homo sapiens, NCI-H441, 3D cell proliferation (CellTiter Glo-3D)
[8] = 3D cell proliferation (CellTiter Glo-3D)

Compound | IC50 [3, 4] | IC50 [1, 5] | IC50 [2, 6] | IC50 (NCI-H441 cells; [7]) | IC50 ([1]; NCI-H441 cells, 3 h compound incubation, HTRF p-ERK T202/Y204, read-out: H441 p-ERK IC50) | IC50 ([2]; AsPC-1 cells, 3 h compound incubation, HTRF p-ERK T202/Y204, read-out: AsPC-1 p-ERK IC50) | IC50 [3, 8] | IC50 (NCI-H441 cells; [8]) | IC50 ([1]; Homo sapiens, NCI-H441, 3 h, read-out: H441 p-ERK IC50(nM)) | IC50 ([2]; Homo sapiens, ASPC1, 3 h, read-out: AsPC-1 p-ERK IC50(nM)) | IC50 (NCI-H441 cells; Homo sapiens, 3D cell proliferation (CellTiter Glo-3D))
CCn1c(-c2cc(C#CCN3CCC(O)(c4cccc[n+]4[O-])CC3)cnc2[C@H](C)OC)c2c3cc(ccc31)-c1csc(n1)C[C@H](NC(=O)[C@H]1[C@H](C)[C@@H]1C)C(=O)N1CCC[C@H](N1)C(=O)OCC(C)(C)C2 (atropisomer, axis not shown; (Ra)) [Compound Z1047, 2-(1-(3-(5-((6^3S,4S,Z)-4-((1r,2R,3S)-2,3-dimethylcyclopropane-1-carboxamido)-1^1-ethyl-10,10-dimethyl-5,7-dioxo-6^1,6^2,6^3,6^4,6^5,6^6-hexahydro-1^1H-8-oxa-2(4,2)-thiazola-1(5,3)-indola-6(1,3)-pyridazinacycloundecaphane-1^2-yl)-(Ra)-6-((S)-1-methoxyethyl)pyridin-3-yl)prop-2-yn-1-yl)-4-hydroxypiperidin-4-yl)pyridine-1-oxide formate] | 0.37 nM | – | – | – | – | – | – | – | 0.22 nM | 0.24 nM | 0.24 nM
CCn1c(-c2cc(C#CCN3CCCS(=O)(=O)CC3)cnc2[C@H](C)OC)c2c3cc(ccc31)-c1csc(n1)C[C@H](Nc1nnc3cc(C)ccn13)C(=O)N1CCC[C@H](N1)C(=O)OCC(C)(C)C2 (atropisomer, axis not shown; (Ra)) [Compound Z979] | 5.14 nM | 1.05 nM | 2.47 nM | 1.23 nM | – | – | – | – | – | – | –
CCn1c(-c2cc([C@H]3CCN4CCOC[C@@H]4C3)cnc2[C@H](C)OC)c2c3cc(ccc31)-c1csc(n1)C[C@H](NC(=O)[C@H]1[C@H](C)[C@@H]1C)C(=O)N1CCC[C@H](N1)C(=O)OCC1(CC1)C2 (single isomer, unassigned) [Compound Z79] | 19.3 nM | 9.7 nM | 24.1 nM | 6.59 nM | – | – | – | – | – | – | –
CCn1c(-c2cc(N3CCN(C)CC3)cnc2[C@H](C)OC)c2c3cc(ccc31)-c1csc(n1)C[C@H](Nc1nnc3ccc(C)cn13)C(=O)N1CCC[C@H](N1)C(=O)OCC(C)(C)C2 (atropisomer, axis not shown; (Ra)) [Compound Z434, (6^3S,4S,Z)-1^1-ethyl-(Ra)-1^2-(2-((S)-1-methoxyethyl)-5-(4-methylpiperazin-1-yl)pyridin-3-yl)-10,10-dimethyl-4-((6-methyl-[1,2,4]triazolo[4,3-a]pyridin-3-yl)amino)-6^1,6^2,6^3,6^4,6^5,6^6-hexahydro-1^1H-8-oxa-2(4,2)-thiazola-1(5,3)-indola-6(1,3)-pyridazinacycloundecaphane-5,7-dione] | 104 nM | 17.5 nM | 69.4 nM | 18.1 nM | – | – | – | – | – | – | –
CCc1ccn2c(N[C@H]3Cc4nc(cs4)-c4ccc5c(c4)c(c(-c4cc(N6CCN(C)CC6)cnc4[C@H](C)OC)n5CC)CC(C)(C)COC(=O)[C@@H]4CCCN(N4)C3=O)nnc2c1 (atropisomer, axis not shown; (Ra)) [Compound Z662, (6^3S,4S,Z)-1^1-ethyl-4-((7-ethyl-[1,2,4]triazolo[4,3-a]pyridin-3-yl)amino)-(Ra)-1^2-(2-((S)-1-methoxyethyl)-5-(4-methylpiperazin-yl)pyridin-3-yl)-10,10-dimethyl-6^1,6^2,6^3,6^4,6^5,6^6-hexahydro-1^1H-8-oxa-2(4,2)-thiazola-1(5,3)-indola-6(1,3)-pyridazinacycloundecaphane-5,7-dione] | 67 nM | 5.4 nM | 34.4 nM | 11 nM | – | – | – | – | – | – | –
CCn1c(-c2cc(C#CCN3CCCOCC3)cnc2[C@H](C)OC)c2c3cc(ccc31)-c1csc(n1)C[C@H](NC(=O)CC1CC1(F)F)C(=O)N1CCC[C@H](N1)C(=O)OCC(C)(C)C2 (atropisomer, axis not shown; (Ra)) [Compound Z932] | 4.14 nM | 1.22 nM | 2.14 nM | 1.68 nM | – | – | – | – | – | – | –
CCn1c(-c2cc(C#CCN3CCC(N=S(C)(C)=O)CC3)cnc2[C@H](C)OC)c2c3cc(ccc31)-c1csc(n1)C[C@H](NC(=O)[C@H]1[C@H](C)[C@@H]1C)C(=O)N1CCC[C@H](N1)C(=O)OCC(C)(C)C2 [Compound Z1045] | 0.21 nM | 0.19 nM | 0.36 nM | 0.17 nM | – | – | – | – | – | – | –

Now from value to molecule, other results behind:

IC50 [3, 4] | IC50 [1, 5] | IC50 [2, 6] | IC50 (NCI-H441 cells; [7]) | IC50 ([1]; NCI-H441 cells, 3 h compound incubation, HTRF p-ERK T202/Y204, read-out: H441 p-ERK IC50) | IC50 ([2]; AsPC-1 cells, 3 h compound incubation, HTRF p-ERK T202/Y204, read-out: AsPC-1 p-ERK IC50) | IC50 [3, 8] | IC50 (NCI-H441 cells; [8]) | Compound | IC50 ([1]; Homo sapiens, NCI-H441, 3 h, read-out: H441 p-ERK IC50(nM)) | IC50 ([2]; Homo sapiens, ASPC1, 3 h, read-out: AsPC-1 p-ERK IC50(nM)) | IC50 (NCI-H441 cells; Homo sapiens, 3D cell proliferation (CellTiter Glo-3D))
2.68 nM | 1.58 nM | 3.99 nM | 0.83 nM | – | – | – | – | CCn1c(-c2cc(OCCN3CCOC4(CC4)C3)cnc2[C@H](C)OC)c2c3cc(ccc31)-c1csc(n1)C[C@H](NC(=O)[C@@H]1[C@@H](C)[C@H]1c1ccncn1)C(=O)N1CCC[C@H](N1)C(=O)OCC(C)(C)C2 (atropisomer, axis not shown; (Ra)) [Compound Z661-2, (1R,2S,3R)—N-((6^3S,4S,Z)—(Ra)-1^2-(5-(2-(4-oxa-7-azaspiro[2,5]octan-7-yl)ethoxy)-2-((S)-1-methoxyethyl)pyridin-3-yl)-11-ethyl-10,10-dimethyl-5,7-dioxo-6^1,6^2,6^3,6^4,6^5,6^6-hexahydro-1^1H-8-oxa-2(4,2)-thiazola-1(5,3)-indola-6(1,3)-pyridazinacycloundecaphane-4-yl)-2-methyl-3-(pyrimidin-4-yl)cyclopropane-1-carboxamide] | – | – | –
0.52 nM | 0.22 nM | 0.35 nM | 0.22 nM | – | – | – | – | [2H]C([2H])([2H])C1(C([2H])([2H])[2H])COC(=O)[C@@H]2CCCN(N2)C(=O)[C@@H](NC(=O)[C@H]2[C@H](C)[C@@H]2C)Cc2nc(cs2)-c2ccc3c(c2)c(c(-c2cc(OCCN4CCOC5(CC5)C4)cnc2[C@H](C)OC)n3CC)C1 (atropisomer, axis not shown; (Ra)) [Compound Z501, (1r,2R,3S)—N-((6^3S,4S,Z)-1^1-ethyl-(Ra)-1^2-(5-(2-(4-oxa-7-azaspiro[2.5]octan-7-yl)ethoxy)-2-((S)-1-methoxyethyl)pyridin-3-yl)-10,10-bis(methyl-d3)-5,7-dioxo-6^1,6^2,6^3,6^4,6^5,6^6-hexahydro-11H-8-oxo-2(4,2)-thiazola-1(5,3)-indola-6(1,3)-pyridazinacycloundecaphane-4-yl)-2,3-dimethylcyclopropane-1-carboxamide] | – | – | –
– | – | – | – | 0.38 nM | 0.63 nM | 1.63 nM | 0.71 nM | CCn1c(-c2cc(OCC(C)(C)N3CCS(=O)(=O)CC3)cnc2[C@H](C)OC)c2c3cc(ccc31)-c1csc(n1)C[C@H](NC(=O)[C@H]1[C@H](C)[C@@H]1C)C(=O)N1CCC[C@H](N1)C(=O)OCC(C)(C)C2 (atropisomer, axis not shown; (Ra)) [Compound Z667, (1r,2R,3S)—N-((6^1S,4S,Z)—(Ra)-1^2-(5-(2-(1,1-dioxidothiomorpholino)-2-methylpropoxy)-2-((S)-1-methoxyethyl)pyridin-3-yl)-1^1-ethyl-10,10-dimethyl-5,7-dioxo-6^1,6^2,6^3,6^4,6^5,6^6-hexahydro-1^1H-8-oxa-2(4,2)-thiazola-1(5,3)-indola-6(1,3)-pyridazinacycloundecaphane-4-yl)-2,3-dimethylcyclopropane-1-carboxamide] | – | – | –
3.19 nM | 0.67 nM | 1.3 nM | 0.59 nM | – | – | – | – | CCn1c(-c2cc(CC3(N4CCS(=O)(=O)CC4)CC3)cnc2[C@H](C)OC)c2c3cc(ccc31)-c1csc(n1)C[C@H](NC(=O)[C@H]1[C@H](C)[C@@H]1C)C(=O)N1CCC[C@H](N1)C(=O)OCC(C)(C)C2 (atropisomer, axis not shown; (Ra)) [Compound Z484, (1r,2R,3S)—N-((6^3S,4S,Z)—(Ra)-1^2-(5-((1-(1,1-dioxidothiomorpholino)cyclopropyl)methyl)-2-((S)-1-methoxyethyl)pyridin-3-yl)-1^1-ethyl-10,10-dimethyl-5,7-dioxo-6^1,6^2,6^3,6^4,6^5,6^6-hexahydro-1^1H-8-oxa-2(4,2)-thiazola-1(5,3)-indola-6(1.3)-pyridazinacycloundecaphane-4-yl)-2,3-dimethylcyclopropane-1-carboxamide] | – | – | –
12.6 nM | 11.7 nM | 10.1 nM | 7.54 nM | – | – | – | – | CCn1c(-c2cc(OCCN3CCC4(CC4)C3)cnc2[C@H](C)OC)c2c3cc(ccc31)-c1csc(n1)C[C@H](NC(=O)[C@H]1[C@H](C)[C@@H]1C)C(=O)N1CCC[C@H](N1)C(=O)OCC1(CC1)C2 [Compound Z415, (1r,2R,3S)—N-((3′S,4′S,Z)-2′-(5-(2-(5-azaspiro[2.4]heptan-5-yl)ethoxy)-2-((S)-1-methoxyethyl)pyridin-3-yl)-1′-ethyl-5′,7′-dioxaspiro[cyclopropane-1,10′-8-oxa-2(4,2)-thiazola-1(5,3)-indola-6(1,3)-pyridazinacycloundecaphan]-4′-yl)-2,3-dimethylcyclopropane-1-carboxamide] | – | – | –
